Values quoted from earlier work as cited in patent US7579326B2, “Gene switch systems employing regulators with decreased dimerization” (Genetronics, Inc., priority 2000, dated 2009).

Legend:
[1] = rats
[2] = molecular target: palindromic 17-mer GAL-4 DNA binding site

| half-life [1] | Kd [2] | Molecule |
| --- | --- | --- |
| 1 h | – | CC#C[C@]1(O)CC[C@H]2[C@@H]3CCC4=CC(=O)CCC4=C3[C@@H](c3ccc(N(C)C)cc3)C[C@@]21C [MFP, 11β-(4-dimethylaminophenyl)-17β-hydroxy-17α-propynyl-4,9-estradiene-3-one] |
| – | 3 nM | GAL-4, residues 1-100: yeast GAL-4 DNA binding domain fragment, residues 1-100 |
